From US10556927B2 (priority 2014, dated 2020)

System: HVA calcium channel currents in DRG neuronal cells
Assay type: cell-based, rat

Question: COC(=O)C1=C(C)NC(C)=C(C(=O)OC)C1c1ccccc1[N+](=O)[O-] [Nifedipine] was tested. Which current after loading did it give?
Answer: −734.31 pA

Question: What about the current before loading of the same molecule?
Answer: −1471.35 pA

Question: What about the inhibition rate (10 µM) of the same molecule?
Answer: 50.09%
